Data set [1] deals with Hepatotoxicity.
Data set [2] has as its system Hepatotoxicity. The source holds these as a separate data set.
For data set [3], the system named is Hepatotoxicity. The source holds these as a separate data set.
The subject of data set [4] is Hepatotoxicity. The source holds these as a separate data set.
In data set [5] the test system is Hepatotoxicity. The source holds these as a separate data set.
The subject of data set [6] is Hepatotoxicity. This is another data set of the same source.
In data set [7] the test system is Hepatotoxicity. The source holds these as a separate data set.
The subject of data set [8] is Hepatotoxicity. This is another data set of the same source.
The subject of data set [9] is Hepatotoxicity. The source holds these as a separate data set.
The subject of data set [10] is Hepatotoxicity. The source holds these as a separate data set.
Data set [11] concerns Hepatotoxicity. The source holds these as a separate data set.
Data set [12] has as its system Hepatotoxicity. The source holds these as a separate data set.
Data set [13] deals with Hepatotoxicity. The source holds these as a separate data set.
The subject of data set [14] is Hepatotoxicity. The source holds these as a separate data set.
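Throughout, for HepSE Combined Scores: combined hepatic side effect score as listed in the training data of the Drug Induced Liver Injury Prediction System (DILIps).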
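Throughout, for HepSE bilirubinemia: bilirubinemia hepatic side effect score drawn from the DILIps training data, a prediction system for drug-induced liver injury; call rule not given here.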
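Throughout, for HepSE cholecystitis: Cholecystitis-related hepatic side effect score drawn from the DILIps (drug-induced liver injury prediction) training data set; call rule not given here.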
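Throughout, for HepSE cholelithiasis: hepatic side effect score for cholelithiasis, drawn from the DILIps training data for predicting drug-induced liver injury; call rule not given here.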
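Throughout, for HepSE cirrhosis: cirrhosis hepatic side effect score taken from the DILIps (drug-induced liver injury prediction) training set; call rule not given here.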
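Throughout, for HepSE elevated liver function tests: hepatic side effect score for raised liver function tests, as recorded in the DILIps training set used for predicting drug-induced liver injury.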
Throughout, for HepSE hepatic failure: call rule not given here.
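Throughout, for HepSE hepatic necrosis: score of hepatic side effects for hepatic necrosis, drawn from the training data of DILIps, a prediction system for drug-induced liver injury; call rule not given here.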
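Throughout, for HepSE hepatitis: Hepatitis-related hepatic side effect score taken from the training data of DILIps, a prediction system for drug-induced liver injury; call rule not given here.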
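Throughout, for HepSE hepatomegaly: hepatic side effect score for hepatomegaly, taken from the training set of the DILIps drug-induced liver injury prediction system; call rule not given here.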
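Throughout, for HepSE jaundice: Jaundice-related hepatic side-effect score drawn from the training data of the DILIps (drug-induced liver injury prediction system); call rule not given here.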
Throughout, for HepSE liver disease: call rule not given here.
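Throughout, for HepSE liver fatty: hepatic side effect score for fatty liver, taken from the DILIps training set for predicting drug-induced liver injury; call rule not given here.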
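Throughout, for HepSE liver function tests abnormal: hepatic side effect score taken from the DILIps (drug-induced liver injury prediction system) training data, here covering abnormal liver function test findings.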

Regarding `CCN1C(=O)NC(c2ccccc2)C1=O` (stereo not given) [ETHOTOIN], the HepSE_liver disease in data set [1] stood at 0. Also, in data set [2], the HepSE_hepatic necrosis amounted to 0. The HepSE_hepatic failure in data set [3] stood at 0. For the same molecule, in data set [4], the HepSE_liver fatty stood at 0. For the same molecule, the HepSE_hepatitis in data set [5] came out at 0. In [6], the HepSE_cholelithiasis was 0. For the same molecule, in data set [7], the “HepSE_elevated liver function tests” value was 0. For the same molecule, the “HepSE_liver function tests abnormal” value in data set [8] is 0. The molecule also returned a HepSE_bilirubinemia in data set [9] of 0. In data set [10], the “HepSE_Combined Scores” value is listed as 0. In data set [11], this molecule showed a HepSE_cirrhosis of 0. The molecule also showed a HepSE_cholecystitis in data set [12] of 0. This molecule also displayed a HepSE_jaundice in [13] of 0. For the same molecule, the HepSE_hepatomegaly in data set [14] turned out to be 0.
For `CC(O)(P(=O)(O)O)P(=O)(O)O` [ETIDRONIC ACID], in data set [1], the HepSE_liver disease came to 0. The HepSE_hepatic necrosis in [2] worked out at 0. Further, in data set [3], the HepSE_hepatic failure was found to be 0. The molecule also showed a HepSE_liver fatty in data set [4] of 0. The molecule also displayed a HepSE_hepatitis in data set [5] of 0. The HepSE_cholelithiasis in data set [6] was 0. Further, the “HepSE_elevated liver function tests” value in [7] turned out to be 0. Further, the “HepSE_liver function tests abnormal” value in [8] stood at 0. The molecule also had a HepSE_bilirubinemia in data set [9] of 0. Also, the “HepSE_Combined Scores” value in data set [10] turned out to be 0. This molecule displayed a HepSE_cirrhosis in data set [11] of 0. Besides, the HepSE_cholecystitis in data set [12] was determined as 0. Besides, the HepSE_jaundice in data set [13] worked out at 0. This molecule returned a HepSE_hepatomegaly in data set [14] of 0.
In data set [1], `CCc1cccc2c3c([nH]c12)C(CC)(CC(=O)O)OCC3` (stereo not given) [ETODOLAC] gave a HepSE_liver disease of 0. In [2], this molecule gave a HepSE_hepatic necrosis of 1. The HepSE_hepatic failure in data set [3] is 1. This molecule also displayed a HepSE_liver fatty in [4] of 0. The same molecule registered a HepSE_hepatitis in data set [5] of 1. In addition, the HepSE_cholelithiasis in data set [6] was 0. The “HepSE_elevated liver function tests” value in [7] was 0. Also, the “HepSE_liver function tests abnormal” value in data set [8] is 0. The HepSE_bilirubinemia in data set [9] is 0. In [10], the “HepSE_Combined Scores” value came out at 4. This molecule displayed a HepSE_cirrhosis in [11] of 0. This molecule also showed a HepSE_cholecystitis in data set [12] of 0. In addition, the HepSE_jaundice in [13] was determined as 1. The molecule further registered a HepSE_hepatomegaly in [14] of 0.
As to `CCOC(=O)c1cncn1[C@H](C)c1ccccc1` [ETOMIDATE], the HepSE_liver disease in data set [1] turned out to be 0. The molecule further yielded a HepSE_hepatic necrosis in data set [2] of 0. In data set [3], this molecule registered a HepSE_hepatic failure of 0. In addition, the HepSE_liver fatty in [4] was determined as 0. In addition, in [5], the HepSE_hepatitis came to 0. This molecule also gave a HepSE_cholelithiasis in data set [6] of 0. Besides, the “HepSE_elevated liver function tests” value in data set [7] was 0. Moreover, the “HepSE_liver function tests abnormal” value in data set [8] turned out to be 0. Moreover, the HepSE_bilirubinemia in data set [9] was 0. Also, in data set [10], the “HepSE_Combined Scores” value came to 0. Moreover, the HepSE_cirrhosis in data set [11] turned out to be 0. Moreover, in data set [12], the HepSE_cholecystitis came out at 0. In addition, in [13], the HepSE_jaundice was found to be 0. In data set [14], this molecule returned a HepSE_hepatomegaly of 0.
In [1] (Liver), `COc1cc([C@@H]2c3cc4c(cc3[C@@H](O[C@@H]3O[C@@H]5CO[C@@H](C)O[C@H]5[C@H](O)[C@H]3O)[C@H]3COC(=O)[C@H]23)OCO4)cc(OC)c1O` [ETOPOSIDE] had a HepSE_liver disease of 0. In [2] (Liver), the HepSE_hepatic necrosis came to 0. In data set [3] (Liver), this molecule came in with a HepSE_hepatic failure of 0. The HepSE_liver fatty in data set [4] (Liver) is reported as 0. Also, the HepSE_hepatitis in data set [5] (Liver) was found to be 0. This molecule displayed a HepSE_cholelithiasis in data set [6] (Liver) of 0. In addition, the “HepSE_elevated liver function tests” value in [7] (Liver) amounted to 0. Besides, the “HepSE_liver function tests abnormal” value in data set [8] (Liver) stood at 0. For the same molecule, in [9] (Liver), the HepSE_bilirubinemia turned out to be 0. In addition, the “HepSE_Combined Scores” value in data set [10] (Liver) was determined as 0. In data set [11] (Liver), this molecule registered a HepSE_cirrhosis of 0. Further, the HepSE_cholecystitis in [12] (Liver) was 0. In data set [13] (Liver), this molecule showed a HepSE_jaundice of 0. The same molecule gave a HepSE_hepatomegaly in [14] (Liver) of 0.
With `C=C1C[C@@H]2[C@H](CC[C@]3(C)C(=O)CC[C@@H]23)[C@@]2(C)C=CC(=O)C=C12` [EXEMESTANE], the HepSE_liver disease in data set [1] is recorded as 0. The molecule further displayed a HepSE_hepatic necrosis in data set [2] of 0. The molecule also yielded a HepSE_hepatic failure in [3] of 0. Besides, the HepSE_liver fatty in [4] came out at 0. In data set [5], this molecule displayed a HepSE_hepatitis of 1. The molecule further had a HepSE_cholelithiasis in data set [6] of 0. Moreover, the “HepSE_elevated liver function tests” value in data set [7] came out at 0. The “HepSE_liver function tests abnormal” value in data set [8] amounted to 0. This molecule also yielded a HepSE_bilirubinemia in data set [9] of 0. Besides, the “HepSE_Combined Scores” value in data set [10] came out at 1. In [11], this molecule registered a HepSE_cirrhosis of 0. Further, the HepSE_cholecystitis in data set [12] came to 0. Moreover, the HepSE_jaundice in data set [13] came to 0. In addition, the HepSE_hepatomegaly in data set [14] is 0.
`O=C1[C@H](CC[C@H](O)c2ccc(F)cc2)[C@@H](c2ccc(O)cc2)N1c1ccc(F)cc1` [EZETIMIBE] gave a HepSE_liver disease in data set [1] of 0. Besides, the HepSE_hepatic necrosis in data set [2] was determined as 0. In data set [3], this molecule returned a HepSE_hepatic failure of 0. For the same molecule, the HepSE_liver fatty in data set [4] was determined as 0. Besides, the HepSE_hepatitis in [5] turned out to be 1. In [6], this molecule registered a HepSE_cholelithiasis of 1. In addition, in data set [7], the “HepSE_elevated liver function tests” value came to 0. Further, in data set [8], the “HepSE_liver function tests abnormal” value was determined as 0. Moreover, in [9], the HepSE_bilirubinemia was 0. Besides, in data set [10], the “HepSE_Combined Scores” value turned out to be 3. Further, in data set [11], the HepSE_cirrhosis is reported as 0. This molecule registered a HepSE_cholecystitis in [12] of 1. The molecule also showed a HepSE_jaundice in data set [13] of 0. In [14], the HepSE_hepatomegaly was 0.
The molecule `CC(=O)OCC(CCn1cnc2cnc(N)nc21)COC(C)=O` [FAMCICLOVIR] yielded a HepSE_liver disease in [1] of 0. This molecule gave a HepSE_hepatic necrosis in data set [2] of 0. Further, the HepSE_hepatic failure in [3] is 0. Moreover, the HepSE_liver fatty in [4] stood at 0. The molecule further gave a HepSE_hepatitis in [5] of 0. For the same molecule, in data set [6], the HepSE_cholelithiasis is on record as 0. For the same molecule, the “HepSE_elevated liver function tests” value in data set [7] is on record as 0. The “HepSE_liver function tests abnormal” value in data set [8] is 1. In data set [9], this molecule came in with a HepSE_bilirubinemia of 1. Further, the “HepSE_Combined Scores” value in data set [10] worked out at 3. Also, the HepSE_cirrhosis in data set [11] was found to be 0. Moreover, the HepSE_cholecystitis in [12] came to 0. In [13], this molecule came in with a HepSE_jaundice of 1. For the same molecule, the HepSE_hepatomegaly in data set [14] came to 0.
With `NC(N)=Nc1nc(CSCCC(N)=NS(N)(=O)=O)cs1` [FAMOTIDINE], the HepSE_liver disease in [1] (Liver) came out at 0. For the same molecule, the HepSE_hepatic necrosis in data set [2] (Liver) came to 0. This molecule also had a HepSE_hepatic failure in [3] (Liver) of 0. In addition, in [4] (Liver), the HepSE_liver fatty stood at 0. The HepSE_hepatitis in data set [5] (Liver) is listed as 0. In [6] (Liver), this molecule had a HepSE_cholelithiasis of 0. Also, the “HepSE_elevated liver function tests” value in data set [7] (Liver) was determined as 0. The “HepSE_liver function tests abnormal” value in data set [8] (Liver) worked out at 0. This molecule displayed a HepSE_bilirubinemia in data set [9] (Liver) of 0. For the same molecule, the “HepSE_Combined Scores” value in [10] (Liver) is reported as 1. The molecule also yielded a HepSE_cirrhosis in [11] (Liver) of 0. Moreover, in [12] (Liver), the HepSE_cholecystitis is recorded as 0. This molecule also had a HepSE_jaundice in data set [13] (Liver) of 1. The HepSE_hepatomegaly in data set [14] (Liver) was 0.
In turn, `CCOC(=O)C1=C(C)NC(C)=C(C(=O)OC)C1c1cccc(Cl)c1Cl` (stereo not given) [FELODIPINE] registered a HepSE_liver disease in data set [1] of 0. The molecule also had a HepSE_hepatic necrosis in data set [2] of 0. In data set [3], the HepSE_hepatic failure was 0. The HepSE_liver fatty in data set [4] stood at 0. In data set [5], this molecule gave a HepSE_hepatitis of 1. This molecule yielded a HepSE_cholelithiasis in [6] of 0. Besides, in [7], the “HepSE_elevated liver function tests” value was determined as 0. Besides, the “HepSE_liver function tests abnormal” value in data set [8] was determined as 0. In addition, in data set [9], the HepSE_bilirubinemia is given as 0. In [10], the “HepSE_Combined Scores” value came out at 1. Besides, the HepSE_cirrhosis in data set [11] was 0. This molecule also came in with a HepSE_cholecystitis in data set [12] of 0. The HepSE_jaundice in data set [13] is reported as 0. Moreover, in data set [14], the HepSE_hepatomegaly is 0.

For the origin of these results see ChEMBL document CHEMBL1909294, “Translating clinical findings into knowledge in drug safety evaluation--drug induced liver injury prediction system (DILIps)” (PLoS Comput Biol, 2011).
